Consider 16 compounds from PubChem BioAssay (NCI).

The structures appear in SMILES notation.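 Growth conditions: 96-well plates. Treatment: test compound, 48 hours, 5 concentrations. Analysis: linear interpolation between bracketing concentrations; unreached endpoints set to highest concentration. At the GI50, growth is halved. TGI marks complete inhibition of growth.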

The first assay relates to RXF 393 renal. Briefly: NCI anticancer screen, dose series, 48 h.
As for `CCOC(=O)/C=C(/C)Sc1cc(O)c2ccccc2c1O`, the GI50 is 2.28 µM and the TGI stood at 6.34 µM.
As to `N=C(N)c1ccc2nc(-c3cc(CC(=O)N[C@@H](CC(=O)O)C(=O)O)cc(-c4cc(S(N)(=O)=O)ccc4O)c3O)[nH]c2c1`, the GI50 was greater than 100 µM and the TGI is greater than 100 µM.
As for `COc1ccc(O)c(C(=O)c2ccc(C(=O)N[C@H]3CCCNC[C@@H]3NC(=O)c3ccncc3)cc2)c1F`, the GI50 is 1.44 µM and the TGI turned out to be 15 µM.
For the compound `COc1ccc(-n2c(C)cc(-c3ccccc3)c2C)cc1`, the GI50 was 1.7 µM and the TGI came to 5.31 µM.
The like results for `O[C@H](c1cc(C(F)(F)F)nc2c(C(F)(F)F)cccc12)[C@@H]1CCCCN1` were, in that order, 3.82 µM and 13.5 µM.
For the compound `COc1cc(C(=O)N2CCN(c3ncccn3)CC2)c(N)cc1OCc1ccccc1`, the GI50 was greater than 100 µM and the TGI was greater than 100 µM.
In the case of `O=C1NC(=O)C(c2cccc([N+](=O)[O-])c2)=C1Nc1cc(Cl)c(O)c(Cl)c1`, the GI50 is greater than 21.7 µM and the TGI is greater than 25 µM.
In turn, `c1ccc2c(c1)c1c(c3ccccc32)CN2CCCC2C1` (stereo not drawn) yielded a TGI of 9.02 µM.

The test system of another assay is A498 renal. Briefly: NCI anticancer screen, dose series, 48 h.
As for `CCn1c(=O)c2c(=O)c3c4c(oc3oc2c2ccccc21)C(=O)c1ccccc1C4=O`, the GI50 was 0.461 µM and the TGI is greater than 100 µM.
Regarding `NC(=O)c1cc(S(=O)(=O)Nc2nnc(-c3ccccc3)c(-c3ccccc3)n2)c(SCc2ccccc2)cc1Cl`, the GI50 was greater than 88.6 µM and the TGI is greater than 100 µM.
For `Cc1cc(C)c(/C=C2\C(=O)Nc3ccc(NC(=O)CCCCCCC(=O)NO)cc32)[nH]1`, the GI50 is 1.4 µM and the TGI amounted to 18.2 µM.
`C1=C\COCc2cc(ccc2OCCN2CCCC2)Nc2nccc(n2)-c2cccc(c2)COC/1`: the GI50 is 1.86 µM and the TGI worked out at 5.32 µM.
The compound `CC(C)(S)C(N)C(=O)O` (stereo not drawn) yielded a TGI greater than 100 µM.
The compound `Cc1nc(-[n+]2nc(-c3ccncc3)nn2-c2ccccc2)sc1C` showed a TGI greater than 100 µM.
On to `COc1cc2c3c(n(CCCOC(=O)C(F)(F)F)c(=O)c2cc1OC)-c1cc2c(cc1C3=O)OCO2`, for which the GI50 was 0.375 µM and the TGI was determined as 20.6 µM.
For the compound `CCOC(=O)/C=C(/C)Sc1cc(O)c2ccccc2c1O`, the GI50 was 22.8 µM and the TGI stood at 56.3 µM.
The matching figures for `N=C(N)c1ccc2nc(-c3cc(CC(=O)N[C@@H](CC(=O)O)C(=O)O)cc(-c4cc(S(N)(=O)=O)ccc4O)c3O)[nH]c2c1`: greater than 100 µM and greater than 100 µM.
For the compound `COc1ccc(O)c(C(=O)c2ccc(C(=O)N[C@H]3CCCNC[C@@H]3NC(=O)c3ccncc3)cc2)c1F`, the GI50 is 0.331 µM and the TGI stood at 3.26 µM.
On to `COc1ccc(-n2c(C)cc(-c3ccccc3)c2C)cc1`, for which the GI50 was 0.637 µM and the TGI worked out at 9 µM.
In the case of `O[C@H](c1cc(C(F)(F)F)nc2c(C(F)(F)F)cccc12)[C@@H]1CCCCN1`, the GI50 was 8.98 µM and the TGI is 22.1 µM.
Regarding `COc1cc(C(=O)N2CCN(c3ncccn3)CC2)c(N)cc1OCc1ccccc1`, the GI50 was 54.2 µM and the TGI is greater than 100 µM.
In the case of `O=C1NC(=O)C(c2cccc([N+](=O)[O-])c2)=C1Nc1cc(Cl)c(O)c(Cl)c1`, the GI50 is greater than 11.5 µM and the TGI is greater than 25 µM.
In turn, `c1ccc2c(c1)c1c(c3ccccc32)CN2CCCC2C1` (stereo not drawn) registered a TGI of 12.1 µM.
Consider `N#CC1=C(N)Oc2cc(O)ccc2C1c1cccc2ccccc12` (stereo not drawn), for which the GI50 is 5.25 µM and the TGI is 22.7 µM.

The test system of the next assay is DU-145 prostate. Briefly: NCI anticancer screen, dose series, 48 h.
Take `CCn1c(=O)c2c(=O)c3c4c(oc3oc2c2ccccc21)C(=O)c1ccccc1C4=O`: the GI50 is greater than 100 µM and the TGI was greater than 100 µM.
Turning to `NC(=O)c1cc(S(=O)(=O)Nc2nnc(-c3ccccc3)c(-c3ccccc3)n2)c(SCc2ccccc2)cc1Cl`, the GI50 is greater than 100 µM and the TGI is greater than 100 µM.
`Cc1cc(C)c(/C=C2\C(=O)Nc3ccc(NC(=O)CCCCCCC(=O)NO)cc32)[nH]1`: the GI50 is 1.49 µM and the TGI is greater than 100 µM.
Regarding `C1=C\COCc2cc(ccc2OCCN2CCCC2)Nc2nccc(n2)-c2cccc(c2)COC/1`, the GI50 is 1.55 µM and the TGI is 5.53 µM.
Turning to `CC(C)(S)C(N)C(=O)O` (stereo not drawn), the GI50 was 1600 µM and the TGI is greater than 5000 µM.
Regarding `Cc1nc(-[n+]2nc(-c3ccncc3)nn2-c2ccccc2)sc1C`, the TGI is greater than 100 µM.
The same measure, in the same setting: as for `COc1cc2c3c(n(CCCOC(=O)C(F)(F)F)c(=O)c2cc1OC)-c1cc2c(cc1C3=O)OCO2`, the figure is 1.71 µM.
As to `CCOC(=O)/C=C(/C)Sc1cc(O)c2ccccc2c1O`, the GI50 was 1.86 µM and the TGI is 3.44 µM.
As for `N=C(N)c1ccc2nc(-c3cc(CC(=O)N[C@@H](CC(=O)O)C(=O)O)cc(-c4cc(S(N)(=O)=O)ccc4O)c3O)[nH]c2c1`, the GI50 was greater than 100 µM and the TGI was greater than 100 µM.
As to `COc1ccc(O)c(C(=O)c2ccc(C(=O)N[C@H]3CCCNC[C@@H]3NC(=O)c3ccncc3)cc2)c1F`, the GI50 is 7.28 µM and the TGI is 24.5 µM.
The like results for `COc1ccc(-n2c(C)cc(-c3ccccc3)c2C)cc1` were, in that order, 4.66 µM and 22.3 µM.
The like results for `O[C@H](c1cc(C(F)(F)F)nc2c(C(F)(F)F)cccc12)[C@@H]1CCCCN1` were, in that order, 3.41 µM and 10.6 µM.
Turning to `COc1cc(C(=O)N2CCN(c3ncccn3)CC2)c(N)cc1OCc1ccccc1`, the GI50 was 37.2 µM and the TGI is greater than 100 µM.
Regarding `O=C1NC(=O)C(c2cccc([N+](=O)[O-])c2)=C1Nc1cc(Cl)c(O)c(Cl)c1`, the GI50 was greater than 25 µM and the TGI is greater than 25 µM.
Consider `c1ccc2c(c1)c1c(c3ccccc32)CN2CCCC2C1` (stereo not drawn), for which the TGI was greater than 100 µM.
As for `N#CC1=C(N)Oc2cc(O)ccc2C1c1cccc2ccccc12` (stereo not drawn), the GI50 is 12.1 µM and the TGI was determined as 29.7 µM.
